Values of other authors, collected in paper PMC6278306, “Anti-Leishmanial and Cytotoxic Activities of a Series of Maleimides: Synthesis, Biological Evaluation and Structure-Activity Relationship” (Molecules, 2018).

Tested on: 10 fungi
Parameters: method as in PMID 21481593
Settings: against 10 fungi; cited from earlier work

| SMILES | MIC [µg/mL] |
| --- | --- |
| O=C1C=CC(=O)N1CCCCc1ccccc1 [N-(4-phenylbutyl)-maleimide] | 0.48 to 15.63 |
| CCCCN1C(=O)C=CC1=O [N-butyl-maleimide] | 0.48 to 15.63 |
